# Measured values reported in US7879893B2, “Ligands for the HisB10 Zn2 + sites of the R-state insulin hexamer” (Novo Nordisk A/S, priority 2001, dated 2011).
# Residues, ends and D or L forms follow the SMILES beside them. *: point of attachment. X1 = O=C1NC(=O)/C(=C/c2cccc(OCC(=O)*)c2)S1; 4Abz = Nc1ccc(C(=O)O)cc1
# Experiment: not given
# Details: not given
row,Compound,melting point [°C]
1,COc1cccc(OC)c1/C=C1\SC(=O)NC1=O,241 to 242
2,CC(/C=C1\SC(=O)NC1=O)=C\c1ccccc1,203 to 210
3,O=C1NC(=O)/C(=C/C(Cl)=C/c2ccccc2)S1,251 to 254
4,c1cc(COc2ccc3ccccc3c2)cc(-c2nnn[nH]2)c1,200 to 202

# The next lines start with the values.
row,melting point [°C],Compound
1,256,COc1cc(/C=C2\SC(=O)NC2=O)cc(I)c1O
2,310 to 314,O=C1NC(=O)/C(=C/c2ccc3cc(O)ccc3c2)S1
3,330 to 333,O=C1NC(=O)C(=Cc2c[nH]c3ccc([N+](=O)[O-])cc23)S1
4,152 to 154,O=C1NC(=O)/C(=C/c2c(Cl)cccc2Cl)S1
5,331 to 333,COc1cc(O)cc(OC)c1/C=C1\SC(=O)NC1=O
6,104 to 105,Cc1cccc(C)c1/C=C1\SC(=O)NC1=O
7,265 to 266,O=C1NC(=O)/C(=C/c2cc3ccccc3o2)S1
8,259 to 263,CN(C)c1ccc(/C=C/C=C2\SC(=O)NC2=O)cc1
9,338 to 347,O=C1NC(=O)/C(=C/c2cc3ccccc3[nH]c2=O)S1

# Experiment: not given
# Details: inherent limitation, background statement; cited from earlier work
row,Compound,absorption half-life
1,"soluble human insulin hexamer: ""inherent limitation of the absorption half-life to about 4 hours for a soluble human insulin hexamer""",about 4 hours

# Same assay, conditions: soluble preparations, background statement; cited from earlier work
row,Compound,absorption rate (time) after subcutaneous injection
1,"Co^3+-hexamer: ""absorption rates vary between about 1 hour (for rapid-acting insulin analogues ...) and about 4 hours (Co^3+-hexamer)""",about 4 hours

# Experiment: Disappearance rate from the subcutaneous depot following subcutaneous injection in pigs (T50% of A14 Tyr(125I) insulin)
# Format: in vivo, pig
# Details: Asp^B28 human insulin, ligand added in concentrations lower than that of Zn2+, s.c.
# Source text: The slow release (prolonged action) properties of certain formulations of the present invention was characterized by the disappearance rate from the subcutaneous depot following subcutaneous injections in pigs. T50% is the time when 50% of the A14 Tyr(^125I) insulin has disappeared from the site of injection as measured with an external γ-counter (Ribel et al., The Pig as a Model for Subcutaneous Absorption in Man. In: M. Serrano-Rtios and P. J. Lefebre (Eds): Diabetes (1985) Proceedings of the 12th congress of the International Diabetes Federation, Madrid, Spain, 1985 (Excerpta Medica, Amsterdam (1986), 891-896). The composition of a series of protracted formulations is given in the table below together with the T50% values. The disappearance curves are illustrated in FIG. 3a-d. For comparison, the T50% for the corresponding insulin preparations formulated without the ligands would be about 2 hours.
# The induction of slow release by addition of exogenous ligands of the invention affords further advantages in terms of versatility regarding the choice of insulin species and release patterns. Consequently, human or mutant insulins such as Asp^B28, Lys^B28Pro^B29, or Gly^A21Lys^B3Glu^B29 may be formulated as slow- or dual-release preparations by adding variable amounts of His^B10Zn^2+-site ligand. […]
row,Compound,release pattern of the formulation
1,"N=C(N)NCCC[C@H](NC(=O)[C@H](CCCNC(=N)N)NC(=O)[C@H](CCCNC(=N)N)NC(=O)[C@H](CCCNC(=N)N)NC(=O)[C@H](CCCNC(=N)N)NC(=O)CNC(=O)CNC(=O)c1ccc(NC(=O)COc2cccc(/C=C3\SC(=O)NC3=O)c2)cc1)C(N)=O [TZD-Abz-G2R5, 4-{2-[3-(2,4-Dioxothiazolidin-5-ylidenemethyl)phenoxy]acetylamino}benzoyl-Gly2-Arg5-NH2] ({X1-4Abz}-GGRRRRR-NH2)",distinctly dual-release formulation

# Same assay, conditions: Asp^B28 human insulin, ligand added in slight excess of the Zn2+ concentration, s.c.
row,Compound,T50%
1,"N=C(N)NCCC[C@H](NC(=O)[C@H](CCCNC(=N)N)NC(=O)[C@H](CCCNC(=N)N)NC(=O)[C@H](CCCNC(=N)N)NC(=O)[C@H](CCCNC(=N)N)NC(=O)CNC(=O)CNC(=O)c1ccc(NC(=O)COc2cccc(/C=C3\SC(=O)NC3=O)c2)cc1)C(N)=O [TZD-Abz-G2R5, 4-{2-[3-(2,4-Dioxothiazolidin-5-ylidenemethyl)phenoxy]acetylamino}benzoyl-Gly2-Arg5-NH2] ({X1-4Abz}-GGRRRRR-NH2)",about 14.8
